Data reported in patent publication US20250145610A1, “CRYSTALLINE FORM OF ISAVUCONAZONIUM SULFATE AND A PROCESS FOR ITS PREPARATION” (Glenmark Life Sciences Limited, priority 2022, published 2025).
Where a name gives a salt, the structure may show the parent alone.

Assay: Stability study of crystalline vs amorphous isavuconazonium sulfate: impurity content by HPLC after storage
Type: physicochemical
Conditions: for Impurity Compound IV content / Impurity Compound IX content / Impurity Compound VI content / Impurity Compound VII content / Impurity Compound VIII content / Impurity Compound X content: HPLC; for Storage stability (in words): 3 months at −20° C. and 2° to 8° C.
Description: High performance liquid chromatography (HPLC) was performed with the conditions described below for detecting chemical purity:
Column: Xterra MS C18, 150×4.6 mm, 3.5μ; Column Temperature: 45° C., Mobile phase: Mobile Phase A; 0.1% Perchloric acid in water: Mobile Phase B=Methanol
Diluent: Methanol: 0.3% Sodium bisulphate (70:30 v/v); Flow Rate: 1.0 mL/Minutes, Detection: 260 nm; Injection Volume: 20 μL.
Comparative stability data was generated for crystalline isavuconazonium sulfate (Form GL-1) and the amorphous form of isavuconazonium sulfate (prepared as described in Comparative Example 1) stored at a temperature of −20° C. and from 2° to 8° C. for three (3) months (i.e., 12 weeks). In particular, the crystalline isavuconazonium sulfate (Form GL-1) obtained as per Example 3 and the amorphous form of isavuconazonium sulfate of Comparative Example 1 were taken in an appropriate amount, and packed in a transparent polyethylene bag. The bag was sealed under vacuum and then enclosed in a black LDPE (Low-density polyethylene) bag which in turn is kept in triple laminated aluminium pouches sealed at three sides. The fourth side of the bag is then sealed under vacuum and kept in a HDPE (High-density polyethylene) container, and stored at −20° C. and from 2° to 8° C. for 3 months (i.e., 12 weeks). Both materials were analyzed after 3 months of storage by the HPLC method described above.

[1] = 3 Month at 2°-8° C., monosulfate salt
[2] = 3 Month at −20° C., monosulfate salt

Row | Impurity Compound IV content [1] [%] | Impurity Compound IX content [1] [%] | Impurity Compound VI content [1] [%] | Impurity Compound VII content [1] [%] | Impurity Compound VIII content [1] [%] | Impurity Compound X content [1] [%] | Impurity Compound IV content [2] [%] | Impurity Compound IX content [2] [%] | Impurity Compound VI content [2] [%] | Impurity Compound VII content [2] [%] | Impurity Compound VIII content [2] [%] | Impurity Compound X content [2] [%] | Impurity Compound IV content (Initial, monosulfate salt) [%] | Impurity Compound IX content (Initial, monosulfate salt) [%] | Impurity Compound VI content (Initial, monosulfate salt) [%] | Impurity Compound VII content (Initial, monosulfate salt) [%] | Impurity Compound VIII content (Initial, monosulfate salt) [%] | Impurity Compound X content (Initial, monosulfate salt) [%] | SMILES | other results
1 | 0.76 | 2.5 | 0.33 | 0.12 | 0.44 | 0.04 | 0.41 | 1.26 | 0.10 | 0.12 | 0.44 | 0.03 | 0.21 | 0.51 | 0.04 | 0.12 | 0.44 | 0.03 | CNCC(=O)OCc1cccnc1N(C)C(=O)OC(C)n1cn[n+](C[C@](O)(c2cc(F)ccc2F)[C@@H](C)c2nc(-c3ccc(C#N)cc3)cs2)c1 (stereo partly drawn) [Amorphous isavuconazonium sulfate prepared as per comparativ] [(2-{[(1-{1-[(2R,3R)-3-[4-(4-cyanophenyl)-1,3-thiazol-2-yl]-2-(2,5-difluorophenyl)-2-hydroxybutyl]-1H-1,2,4-triazol-4-ium-4-yl}ethoxy)carbonyl](methyl)amino}pyridin-3-yl)methyl-N-methylglycinate monosulfate salt, reference compound] | Stability of the solid form (in words) (generates impurities of formulae IV, VI, VII, VIII, IX, X and XI): unstable
2 | 0.07 | 0.13 | 0.03 | 0.08 | 0.02 | 0.07 | 0.05 | 0.09 | 0.02 | 0.08 | 0.03 | 0.08 | 0.03 | 0.09 | 0.01 | 0.08 | 0.03 | 0.05 | CNCC(=O)OCc1cccnc1N(C)C(=O)OC(C)n1cn[n+](C[C@](O)(c2cc(F)ccc2F)[C@@H](C)c2nc(-c3ccc(C#N)cc3)cs2)c1 (stereo partly drawn) [Crystalline isavuconazonium sulfate (Form GL-1) of Example 3] [(2-{[(1-{1-[(2R,3R)-3-[4-(4-cyanophenyl)-1,3-thiazol-2-yl]-2-(2,5-difluorophenyl)-2-hydroxybutyl]-1H-1,2,4-triazol-4-ium-4-yl}ethoxy)carbonyl](methyl)amino}pyridin-3-yl)methyl-N-methylglycinate monosulfate salt] | Storage stability (in words) (listed as Form GL-1, monosulfate salt): more stable compared to the amorphous form of isavuconazonium sulfate; Storage stability (in words) (listed as crystalline isavuconazonium sulfate (Form GL-1), monosulfate salt): stable at 3 months; Period over which stability is maintained (stored at −20° C. and 2° to 8° C., sealed under vacuum): ≥ 3 months
